This is an account of results in patent publication US6103709A (priority 1998, dated 2000).

The structures appear in SMILES notation. “Also recorded” adds a separate entry of the source.

The subject of assay [1] is MAP-kinase p42^mapk in NB4 cells. The assay is described as follows: MAP-kinase activation (p42mapk phosphorylation) in NB4 cells. Format: cell-based, human. The note with it: 1 or 5 minutes exposure. As to the method:
In order to determine whether MAP-kinase phosphorylation is specific and is altered by 1α,25(OH)2 D3, the time-dependent effects of 1α,25(OH)2 D3 on p42^mapk phosphorylation was examined using human acute promyelocytic leukemia cells (NB4). In this study, the NB4 cells, cultured in 10% charcoal-stripped fetal calf serum (FCS) medium, were treated with 1α,25(OH)2 D3 at 10^-8 M for various time periods. Cells were then extracted and the phosphorylated MAP-kinase was immunoprecipitated with anti-phosphotyrosine antibody and further analyzed by Western blot using the antibodies against p42^mapk.
The lysate was further processed for anti-phosphotyrosine immunoprecipitation. […] After transferring the proteins to the PVDF membrane, the membrane was further incubated with primary anti-p42^mapk antibodies that were (+) or were not (-) pre-exposed to MAP-kinase peptide.
This example describes assays used for measurement of MAP-kinase activity in NB4 cells.
Cell culture of NB4 cells
The cell line is characterized by a translocation involving chromosomes 15 and 17, which is typical of the classical form of APL-M3 in the French-American-British [FAB] classification. NB4 cells were cultured in DMEM/F12 medium with 10% FCS at 5% CO2 balanced air and were routinely passaged as suspension cultures and only passages 8 to 20 were used for each assay.
Immunoprecipitation of Tyrosine-Phosphorylated Proteins
NB4 cells were cultured in 60-mm diameter dishes and treated with 1,25(OH)2 D3 or analogs in 4 ml of DMEM/F12 containing 10% charcoal-stripped FCS.
Insoluble material was removed in a microcentrifuge at 14,000 rpm for 10 min. Protein concentration was determined with a protein assay kit (Bio-Rad Lab, Hercules, Calif.). For immunoprecipitation, the supernatant was incubated with bead-conjugated monoclonal anti-phosphotyrosine antibody overnight at 4° C. The immunoprecipitates containing the tyrosine-phosphorylated proteins were washed four times with freshly-prepared RIPA buffer and further eluted with 2× Laemmli gel buffer.
At this point, the samples were either stored at -20° C. for further use or processed via Western blots. Equal loading of MAP-kinase protein was determined by running the Western blots using polyclonal anti-p42^mapk antibody. For this purpose, samples were aliquoted from each cell extract before immunoprecipitation.
SDS Gel Electrophoresis and Western blot
The membrane was further immunoblotted using a rabbit anti-p42^mapk polyclonal antibody overnight at 4° C. followed by incubation with secondary horseradish peroxidase-conjugated mouse anti-rabbit antibody for 1 hr at 25° C. The phosphorylated MAP-kinase bands were then visualized by enhanced chemiluminescence (ECL). A Ultrascan LX Laser Densitometer (LKB, Bromma, Sweden) scanned the density of the immuno-phosphoprotein bands. The results were normalized by protein loading and further plotted as percent of control of the band density.

A further assay deals with VDRnuc. Nature of the assay: Genomic response (summary classification). The note with it: Yes/No, Tables 1 and 6. From the text:
(§1) Table 6 identifies biological properties, such as genomic response, rapid response, agonist or antagonist function, binding of the analog to the vitamin binding protein (expressed as RCI), binding to the nuclear 1α,25(OH)2 D3 receptor (expressed as RCI) rapid response (expressed as % transcaltachia the rapid hormonal stimulation of intestinal calcium absorption) the classic vitamin D responses such as intestinal Ca^2+ absorption (ICA) and bone Ca^2+ mobilizing activity (BCM) determined in vivo in a vitamin D-deficient chick, and cell differentiation (expressed as % ED50), an assessment of the ability to promote the nuclear response of cell differentiation.

The test system of the next assay is keratinocytes. The note with it: cell cultures of keratinocytes; cited from earlier work.
The subject of assay [2] is vitamin D-deficient chick. The assay is described as follows: Intestinal Ca2+ absorption (ICA) in vitamin D-deficient chick. Format: in vivo. The note with it: i.m. As to the method:
A primary fundamental physiological property of vitamin D and particularly 1α,25(OH)2 D3 is its ability to stimulate the intestinal absorption of calcium and facilitate the availability of dietary calcium to the organism. Intestinal absorption of the calcium is measured by the intestinal calcium absorption (ICA) assay, developed in the model of vitamin-D deficient chicks. The ICA assay was used to determine the relative capability of the tested analog to stimulate intestinal Ca^2+ absorption.
(§2) Results of the testing of the analogs of the invention in vivo by the ICA and IBM assays are shown in FIG. 9 which illustrates the capability of analogs LO, EV and HR to stimulate intestinal Ca^2+ absorption (ICA) and bone Ca^2+ mobilizing activity (BCM). In this study, the analogs of 1α,25(OH) were given i.m. to vitamin D-deficient chicks 12 hours before the assay began. The activity produced by 100 pmol of 1α,25(OH)2 D3 was set to be 100% for both ICA and BCM. The dose of the analogs required to achieve a biological response for either ICA or BCM equivalent to the 100 pmol dose of 1α,25(OH)2 D3 was calculated and converted to a percentage. Results are expressed as mean +SE of groups of seven chicks. Each assay included a negative control (-D), that is no vitamin D was present, and a positive control, where vitamin D3 (+D3) was present in 3.25 nmol. […] 1α,25(OH)2 D3 and analogs LO [14α,15α-methano-1α,25(OH)2 D3 ], EV [22-(m(dimethylhydroxymethyl)phenyl)-23,24,25,26,27-pentanor-1α-OH-D3 ] and HR [(22R)-1,25(OH)2 -22,23-diene-D3 ] were administered in 0.0065, 0.065, 0.65 and 6.5 nmol as shown.
(§3) In Vivo Assays of Intestinal Calcium Absorption and Bone Calcium Mobilization
(§4) This example describes assays used for determination of analogs biological activity in intestinal calcium absorption (ICA) and bone calcium mobilization (BCM) assays.
(§5) ICA and BCM were measured in vivo in the vitamin D-deficient chick model system according to Biochem. Pharmacol., 18: 2347 (1969).
(§6) Twelve hours before assay, the chickens, which had been placed on a zero-calcium diet 48 h before assay, were injected intramuscularly with the vitamin metabolite 1α,25(OH)2 D3 or analog (1-10,000 pmoles) dissolved in 0.1 mL of ethanol/1,2-propanediol (1:1, v/v). At the time of assay, 4.0 mg of ^40 Ca^2+ +5 μCi of ^45 Ca^2+ (New England Nuclear) were placed in the duodenum of the birds lightly anesthetized with ether. After 30 min, the birds were decapitated and the blood was collected.
The radioactivity content, which is a measure of ICA, of 0.2 mL of serum was measured in a liquid scintillation counter (Beckman LS8000) to determine the amount of ^45 Ca^2+ absorbed.

Assay [3] concerns vitamin D-deficient chick. The assay is described as follows: Bone Ca2+ mobilizing activity (BCM) in vitamin D-deficient chick. Format: in vivo. The settings on record: i.m. The protocol: The bone calcium mobilizing (BCM) assay is also conducted in the vitamin D-deficient chick. The BCM assay determines the relative ability of the tested analog to mobilize bone calcium. The natural hormone 1α,25(OH)2 D3 is very potent in the BCM assay. For example, when 1α,25(OH)2 D3 in inappropriate amounts are used as a drug in human patients, the patient may become hypercalcemic and eventually hypercalciuria with nephrolithiasis and renal failure may develop. The BCM assay was used to determine the relative activity of the analogs of the invention to stimulate bone Ca^2+ mobilization.
as §2, §3, §4, §5, §6
BCM activity was estimated from the increase of total serum calcium concentration, as determined by atomic absorption spectrophotometry.

The subject of the next assay is VDRmem. The assay is described as follows: Rapid response (summary classification). The settings on record: Yes/No, Tables 1 and 6.
Text: as §1

Assay [4] relates to chloride channels in ROS 17/2.8 cells. The protocol: In each case, at least a 3-min period was allowed after the addition of the analog to the bath for currents to reach a stable amplitude value. […] Anion currents were isolated from inward Ba^2+ currents after blockade of Ca^2+ channels with 100 μM Cd^2+.
The next assay concerns rapid responses (VDRmem). The assay is described as follows: Antagonist function (summary classification). The settings on record: Yes/No, Tables 1 and 6.
Text: as §1

[5] abbreviates: relative to 100 pmol 1α,25(OH)2 D3 = 100%, 12 h before assay.

On to `C=C1/C(=C\C=C2/CCC[C@]3(C)[C@@H]([C@H](C)CCCC(C)(C)O)CC[C@@H]23)C[C@@H](O)C[C@@H]1O` [Analog C, 1α,25-dihydroxyvitamin D3, reference compound], for which, in assay [1], the “phosphorylation / activation of MAP-kinase p42mapk (in words)” value is “significantly increased phosphorylation of p42^mapk in NB4 cells”. For the same molecule, the “Genomic Response” value in the assay on VDRnuc is reported as “Yes”. Besides, the “production of keratin, involucrin and loricrin” value in the assay on keratinocytes was “stimulate the production of keratin, involucrin and loricrin”. Besides, the “Classic Vit D Responses ICA” value in assay [2] (setting [5]) came to 100%. Besides, the “ICA (in words)” value in assay [2] (vitamin D-deficient chick) is “most potent stimulator of ICA and BCM”. Besides, the “Classic Vit D Responses BCM” value in assay [3] (setting [5]) amounted to 100%. Moreover, in assay [3] (vitamin D-deficient chick), the “BCM (in words)” value is “most potent stimulator of ICA and BCM”. Besides, the “Rapid Response” value in the assay on VDRmem was “Yes”. For the same molecule, the “opening of chloride channels (in words)” value in assay [4] (0.05-50 nM, alone, listed as 1α,25(OH)2 D3) was “concentration-dependent effect on the promotion of anion currents; also recorded: agonist which opens chloride channels”. The “cells responding with promotion of anion currents” value in assay [4] (1α,25(OH)2 D3 alone, 14 out of 15 cells) is on record as 93%. For the same molecule, the Antagonist entry with rapid responses (VDRmem) is given as “No”.
